Reference: patent US20260240958A1, “REPRESSOR FUSION PROTEIN SYSTEMS” (Scribe Therapeutics Inc., priority 2023, published 2026)

Experiments:
[1] = tested on: B2M gene; assay: B2M reactivation by DNMT1 inhibitor 5-azadC in transfected HEK293T cells cultured for 58 days; format: cell-based, human; conditions: HEK293T transfected with construct + B2M-targeting gRNA; 0 to 20 μM 5-azadC
Source text: LTRP configuration 5 containing the ZIM3-KRAB domain, which was generated as described in Example 1, and CasX variant 491 were used in this experiment. A B2M-targeting gRNA with scaffold 174 containing spacer 7.37 (SEQ ID NO: 1904) or a non-targeting gRNA containing spacer 0.0 (SEQ ID NO: 1906) were used in this experiment.

[2] = tested on: PCSK9 mRNA; assay: PCSK9 mRNA RT-qPCR dose response (IC50, IC90, Emax) in primary human hepatocytes treated with LNPs; format: cell-based; conditions: day 5
Protocol: (§1) Two lots (lot #271 and lot #31) of primary human hepatocytes (Lonza Biologics) were plated at density of 65K cells/well. Twenty-four hours later, plates were stamped with the indicated total encapsulated RNA dose of single formulations ALC-0315 LNP (1:1 ratio, pre-incubated with human serum overnight) at the indicated dose in triplicate wells for each condition. Doses tested for each mRNA:gRNA pair (Table 60) were 2400, 800, 270, 90, 30, 10, 0.1, and 0.01 ng/well total encapsulated RNA.
For rounds 1 and 2, cells were immediately lysed in 100 uL DNA RNA shield™ and stored at […] after the day 5 media collection.
Extracted mRNA was processed and analyzed by RT-qPCR. Measurement ofPCSK9 mRNA expression is performed using a single-step RT-qPCR approach. 50 uL lysate was used to extract total RNA using Zymo 96 RNA extraction kits. Total RNA was then reverse transcribed into cDNA and PCSK9 transcript quantified in reference to a GAPDH endogenous control by quantitative PCR using TaqMan probes. Percent change in mRNA was calculated by comparing to samples treated with a non-targeting sequence.
(§2) The ability of pairs of mRNA:gRNA comprising scaffold 316 and an PCSK9-targeting sequence to reduce secretion of PCSK9 and PCSK9 mRNA reduction was assessed. […]

[3] = tested on: human PCSK9 locus; assay: Secreted PCSK9 dose response (IC50, IC90, Emax) in primary human hepatocytes treated with LNPs; format: cell-based; conditions: day 5
Protocol: PCSK9 knockdown in primary human hepatocytes, provided an experimental basis for lipofection of gRNA comprising one of the four top editing targeting sequences (Table 59) into PHH cells for assessment of PCSK9 secretion and mRNA reduction. Dose response curves were generated from two lots of PHH cells with three rounds of triplicate wells for each condition. The highest tested dose, 2400 ng/well total encapsulated RNA, was used to measure mRNA expression changes between treated and naïve cells via RNA-seq.
as §1, with “RNA. […]” for “RNA.”
Secreted PCSK9 levels in the media supernatant were analyzed using the BioLegend® ELISA MAX™ kit following the manufacturer's instructions.
as §2

[4] = tested on: human PCSK9 locus; assay: Secreted PCSK9 ELISA in Huh7 cells transfected with mRNA and gRNA; format: cell-based; conditions: for normalized secreted PCSK9 level: days 6, 18, 36
Protocol: The following three human hepatocyte cancer cell lines were used in this experiment: HepG2 cells, Hep3B cells, and Huh7 cells. ~15,000 cells of each cell line were seeded in each well of a 96-well plate. The next day, seeded cells were transfected with mRNA encoding a catalytically-active CasX 676, dXR1, or LTRP5-ADD-ZIM3 and a gRNA with scaffold 316 and spacer targeting either the B2M or PCSK9 locus (see Table 12 for specific spacers and sequences). Media supernatant was harvested at 4 days post-transfection to assess level of PCSK9 secretion by ELISA, and levels of PCSK9 secretion were normalized to total cell count, as illustrated in FIGS. 2A-2C. Culturing of treated Huh7 cells continued, and media supernatant was harvested at 14 and 27 days post-transfection for measuring PCSK9 secretion by ELISA. As an additional experimental control, PCSK9 secretion was also measured in the media supernatant harvested from wells containing untreated, naïve cells.
To assess PCSK9 secretion, seeded Huh7 cells were transfected with mRNA encoding a catalytically-active CasX 676, dXR1, or LTRP5-ADD-ZIM3 and a gRNA with scaffold 316 and a spacer targeting either the B2M or PCSK9 locus. Media supernatant was harvested at 6, 18, and 36 days post-transfection to assess level of PCSK9 secretion by ELISA. Levels of PCSK9 secretion were normalized to total cell count. As an additional control, PCSK9 secretion was also measured in the media supernatant harvested from wells containing untreated, naïve cells.

[5] = tested on: mouse PCSK9 locus; assay: Intracellular PCSK9 staining by flow cytometry in Hepa1-6 cells lipofected with mRNA and PCSK9-targeting gRNA; format: cell-based
Protocol: Transfection of mRNA and gRNA into Hepa1-6 cells and intracellular PCSK9 staining were performed as described in Example 6. Briefly, each well of seeded Hepa1-6 cells was transfected with 300 ng of mRNA encoding LTRP5-ZIM3 or LTRP5-ADD-ZIM3 and 150 ng of PCSK9-targeting gRNA with spacer 27.88 or 27.94. Intracellular levels of PCSK9 protein were measured at various timepoints, up to day 53 post-transfection using an intracellular staining protocol as described earlier in Example 6. A non-targeting gRNA was used as an experimental control.
Seeded Hepa1-6 cells treated with the NATE™ inhibitor were lipofected with 300 ng of mRNA encoding dXR1 or LTRP1-ZIM3 (Table 36) and 150 ng of a PCSK9-targeting gRNA (Table 37). Seven different gRNAs with spacers spanning the promoter region of the mouse PCSK9 locus were tested, in addition to a sequence complementary to the human PCSK9 gene that served as the non-targeting control (Table 37). Cells were harvested at 6, 13, and 25 days after transfection to measure intracellular levels of the PCSK9 protein using an intracellular flow cytometry staining protocol. Briefly, cells were fixed using 4% paraformaldehyde in PBS, permeabilized, and stained using a mouse anti-PCSK9 primary antibody (R&D Systems), followed by a fluorescent goat anti-mouse IgG secondary antibody (Thermo Fisher). Fluorescence levels were measured using the Attune™ NxT flow cytometer, and data were analyzed using the FlowJo™ software. Cell populations were gated using the non-targeting gRNA as a negative control.
Seeded Hepa1-6 cells treated with the NATE™ inhibitor were lipofected with 300 ng of mRNA encoding LTRP1-ZIM3, LTRP5-ZIM3, catalytically-active CasX 491, or dCas9-ZNF10-DNMT3A/3L, and 150 ng of PCSK9-targeting gRNA (Table 37). Intracellular levels of PCSK9 protein were measured at day 7, 14, 21, 36, and 71 days post-transfection using an intracellular staining protocol as described for experiment #1.

Nc1ncn([C@H]2C[C@H](O)[C@@H](CO)O2)c(=O)n1 [5-azadC, 5-aza-2′-deoxycytidine]
reactivation of the B2M gene upon 5-azadC treatment [1]: resulted in a reactivation of the B2Mgene

TG-06-154: NHP-conserved TSS-proximal TTC spacer targeting the human PCSK9 locus (Table 40) (guide AGGGUGUGGGUGCUUGACGC; spacer within gRNA, v1 profile: 2'-OMe and phosphorothioate on first and last three gRNA nucleotides, further chemistry not given here)
potency in reducing PCSK9 mRNA levels [2]: the most potent LTRP spacer
potency in reducing secreted PCSK9 protein [3]: the most potent LTRP spacer

TG-06-352: spacer targeting human PCSK9, positioned beyond the 1100 bp threshold window (guide UCCCUCACCAAUUACCCCUC; spacer within gRNA, v1 profile: 2'-OMe and phosphorothioate on first and last three gRNA nucleotides, further chemistry not given here)
normalized secreted PCSK9 level ([4]; Huh7, spacer paired with LTRP5-ADD-ZIM3, compared with spacer 6.1 paired with CasX 676 and controls): effective repression

dXR1: dCasX fused to ZIM3-KRAB; protein SEQ ID NO 2008
repression of PCSK9 secretion relative to naïve control at day 4 ([4]; Huh7, spacer 6.138, days 4, 14, 27): initial strong repression at day 4, this repressive effect was transient
normalized secreted PCSK9 level ([4]; Huh7, spacer 6.138): transient repression
knockdown of PCSK9 secretion (normalized to total cell count) ([4]; Huh7 compared with HepG2 and Hep3B cells, 4 days post-transfection): most efficient knockdown of PCSK9 secretion
degree of PCSK9 repression compared with LTRP1-ZIM3 ([5]; day 6, e.g. spacers 27.92 and 27.100): the degree of repression was less substantial when paired with certain spacers
persistence of PCSK9 repression ([5]; days 6, 13, 25): transient repression

spacer 27.94: gRNA spacer targeting the mouse PCSK9 locus, SEQ ID NO 2014 (guide CCCCUCUUAAUCCCCACUCC; listed as RNA, chemistry not given here)
durability of PCSK9 repression ([5]; paired with LTRP5-ZIM3 or LTRP5-ADD-ZIM3 mRNA, day 53): more durable repression than use of spacer 27.88
